Experimental data taken from patent publication US4525473A, “Cephalosporins” (Bristol-Myers Company, priority 1983, dated 1985).
Values after ≈ are worked out from the molar mass of the structure shown. Like-named read-outs stand apart in the source and are kept apart here.

Columns and labels:
Assay type in all cases: cell-based
[1] = tested on: M. morganii (1), E. cloacae (2) and S. marcescens (2); experiment: MIC by two-fold serial agar dilution in Mueller-Hinton agar, Gn-II; conditions: for MIC: read-out: Geometric Mean of MIC
Experimental: (§1) In the primary evaluation of the compounds of this invention, the Minimum Inhibitory Concentrations (MIC's) of the compounds were determined by the two-fold serial agar dilution method in Mueller-Hinton agar against 32 strains of test organisms in six groups.
GnII: M. morganii (1), E. cloacae (2) and S. marcescens (2)

[2] = tested on: Cephalothin(CET)sensitive E. coli (2 strains), K. pneumoniae (1) and P. mirabilis (2); experiment: MIC by two-fold serial agar dilution in Mueller-Hinton agar, Gn-Ia; conditions: for MIC: read-out: Geometric Mean of MIC
Experimental: as §1
GnIa: Cephalothin(CET)sensitive E. coli (2 strains), K. pneumoniae (1) an […]

[3] = tested on: P. aeruginosa; experiment: MIC by two-fold serial agar dilution in Mueller-Hinton agar, Gn-III; conditions: for MIC: Pseudomonas aeruginosa, read-out: Geometric Mean of MIC
Experimental: as §1

[4] = tested on: PCresistant S. aureus; experiment: MIC by two-fold serial agar dilution in Mueller-Hinton agar, Gp-Ib; conditions: for MIC: Staphylococcus aureus, read-out: Geometric Mean of MIC
Experimental: as §1
GpIb: PCresistant S. aureus

[5] = tested on: CETresistant E. coli (3) and K. pneumoniae (2); experiment: MIC by two-fold serial agar dilution in Mueller-Hinton agar, Gn-Ib; conditions: for MIC: Escherichia coli, read-out: Geometric Mean of MIC
Experimental: as §1
GnIb: CETresistant E. coli (3) and K. pneumoniae (2)

[6] = tested on: Penicillin(PC)sensitive S. aureus; experiment: MIC by two-fold serial agar dilution in Mueller-Hinton agar, Gp-Ia; conditions: for MIC: Staphylococcus aureus
Experimental: as §1
Gp-Ia: Penicillin(PC)sensitive S. aureus

[7] = Gn-Ia, 5 strains, CET-sensitive
[8] = Gn-III, 7 strains, P. aeruginosa
[9] = Gp-Ib, 5 strains, PC-resistant S. aureus
[10] = Gn-Ib, 5 strains, CET-resistant
[11] = Gp-Ia, 5 strains, PC-sensitive S. aureus
[12] = Gp-Ia, 5 strains, PC-sensitive S. aureus, read-out: Geometric Mean of MIC
[13] = read-out: Geometric Mean of MIC, Gp-Ia, 5 strains, PC-sensitive S. aureus

7-[(Z)-2-(2-Aminothiazol-4-yl)-2-methoxyiminoacetamido]-3-[(6-methyl-5,6,7,8-tetrahydro-6-[1,6]naphthylidinio)methyl]-3-cephem-4-carboxylate [Example 23]
Geometric Mean of MIC ([1]; Gn-II, 5 strains): 0.96 µg/mL
Geometric Mean of MIC [2, 7]: 0.070 µg/mL
Geometric Mean of MIC [3, 8]: 6.3 µg/mL
Geometric Mean of MIC [4, 9]: 2.9 µg/mL
Geometric Mean of MIC [5, 10]: 0.28 µg/mL
Geometric Mean of MIC [6, 11]: 1.4 µg/mL

CO/N=C(\C(=O)NC1C(=O)N2C(C(=O)[O-])=C(C[N+]3(C)CCC[C@H]3C(N)=O)CSC12)c1csc(N)n1 (single isomer, unassigned) [8 Isomer A]
MIC ([1]; Gn-II, 5 strains): 0.35 µg/mL (≈ 0.668 µM)
MIC [2, 7]: 0.098 µg/mL (≈ 0.187 µM)
MIC [3, 8]: 11 µg/mL (≈ 21 µM)
MIC [4, 9]: 4.7 µg/mL (≈ 8.98 µM)
MIC [5, 10]: 0.39 µg/mL (≈ 0.745 µM)
MIC [6, 12]: 2.1 µg/mL (≈ 4.01 µM)

CO/N=C(\C(=O)NC1C(=O)N2C(C(=O)[O-])=C(C[N+]3(C)CCC[C@H]3C(N)=O)CSC12)c1csc(N)n1 (single isomer, unassigned) [8 Isomer B]
MIC [1]: 0.23 µg/mL (≈ 0.439 µM)
Geometric Mean of MIC [2, 7]: 0.057 µg/mL
Geometric Mean of MIC [3, 8]: 7.2 µg/mL
Geometric Mean of MIC [4, 9]: 4.1 µg/mL
MIC [5]: 0.2 µg/mL (≈ 0.382 µM)
Geometric Mean of MIC [6, 11]: 1.6 µg/mL

CO/N=C(\C(=O)NC1C(=O)N2C(C(=O)[O-])=C(C[N+]3(C)CCOC3)CSC12)c1csc(N)n1 (single isomer, unassigned) [12 Isomer A]
MIC ([1]; Gn-II, 5 strains): 0.21 µg/mL (≈ 0.435 µM)
MIC [2, 7]: 0.046 µg/mL (≈ 0.0953 µM)
MIC [3, 8]: 5.4 µg/mL (≈ 11.2 µM)
MIC [4, 9]: 4.4 µg/mL (≈ 9.12 µM)
MIC [5, 10]: 0.25 µg/mL (≈ 0.518 µM)
MIC [6, 13]: 1.1 µg/mL (≈ 2.28 µM)

CO/N=C(\C(=O)NC1C(=O)N2C(C(=O)[O-])=C(C[N+]3(C)CCOC3)CSC12)c1csc(N)n1 (single isomer, unassigned) [12 Isomer B]
Geometric Mean of MIC ([1]; Gn-II, 5 strains): 0.18 µg/mL
MIC [2]: 0.04 µg/mL (≈ 0.0829 µM)
Geometric Mean of MIC [3, 8]: 4.0 µg/mL
Geometric Mean of MIC [4, 9]: 4.4 µg/mL
Geometric Mean of MIC [5, 10]: 0.21 µg/mL
Geometric Mean of MIC [6, 11]: 1.3 µg/mL

CO/N=C(\C(=O)NC1C(=O)N2C(C(=O)[O-])=C(C[N+]3(C)CCSC3)CSC12)c1csc(N)n1 (single isomer, unassigned) [13 Isomer A]
Geometric Mean of MIC ([1]; Gn-II, 5 strains): 0.28 µg/mL
MIC [2, 7]: 0.046 µg/mL (≈ 0.0923 µM)
MIC [3, 8]: 5.9 µg/mL (≈ 11.8 µM)
MIC [4, 9]: 3.1 µg/mL (≈ 6.22 µM)
Geometric Mean of MIC [5, 10]: 0.28 µg/mL
MIC [6, 12]: 0.84 µg/mL (≈ 1.68 µM)

CO/N=C(\C(=O)NC1C(=O)N2C(C(=O)[O-])=C(C[N+]3(C)CCSC3)CSC12)c1csc(N)n1 (single isomer, unassigned) [13 Isomer B]
Geometric Mean of MIC ([1]; Gn-II, 5 strains): 0.13 µg/mL
MIC [2]: 0.029 µg/mL (≈ 0.0582 µM)
MIC [3]: 2.5 µg/mL (≈ 5.01 µM)
Geometric Mean of MIC [4, 9]: 1.6 µg/mL
Geometric Mean of MIC [5, 10]: 0.13 µg/mL
Geometric Mean of MIC [6, 11]: 0.72 µg/mL

CO/N=C(\C(=O)NC1C(=O)N2C(C(=O)[O-])=C(C[N+]3(C)CCCCC3)CS[C@H]12)c1csc(N)n1 (stereo partly drawn) [Example 1, 7-[(Z)-2-(2-Aminothiazol-4-yl)-2-methoxyiminoacetamido]-3-(1-methyl-1-piperidinio)methyl-3-cephem-4-carboxylate]
MIC ([1]; Gn-II, 5 strains): 0.55 µg/mL (≈ 1.11 µM)
MIC [2, 7]: 0.03 µg/mL (≈ 0.0607 µM)
MIC [3, 8]: 3.2 µg/mL (≈ 6.47 µM)
MIC [4, 9]: 2.9 µg/mL (≈ 5.86 µM)
MIC [5]: 0.14 µg/mL (≈ 0.283 µM)
MIC [6, 13]: 1.3 µg/mL (≈ 2.63 µM)

CO/N=C(\C(=O)NC1C(=O)N2C(C(=O)[O-])=C(C[N+]3(C)CCOCC3)CS[C@H]12)c1csc(N)n1 (stereo partly drawn) [Example 2, 7-[(Z)-2-(2-Aminothiazol-4-yl)-2-methoxyiminoacetamido]-3-(4-methyl-4-morpholinio)methyl-3-cephem-4-carboxylate]
MIC ([1]; Gn-II, 5 strains): 0.96 µg/mL (≈ 1.93 µM)
MIC [2, 7]: 0.061 µg/mL (≈ 0.123 µM)
MIC [3, 8]: 4 µg/mL (≈ 8.06 µM)
MIC [4, 9]: 5 µg/mL (≈ 10.1 µM)
MIC [5]: 0.22 µg/mL (≈ 0.443 µM)
MIC [6, 12]: 1.7 µg/mL (≈ 3.42 µM)

CO/N=C(\C(=O)NC1C(=O)N2C(C(=O)[O-])=C(C[N+]34CCC(CC3)CC4)CS[C@H]12)c1csc(N)n1 (stereo partly drawn) [Example 3, 7-[(Z)-2-(2-Aminothiazol-4-yl)-2-methoxyiminoacetamido]-3-(1-quinuclidinio)methyl-3-cephem-4-carboxylate]
MIC ([1]; Gn-II, 5 strains): 0.84 µg/mL (≈ 1.66 µM)
MIC [2]: 0.04 µg/mL (≈ 0.079 µM)
MIC [3, 8]: 2.8 µg/mL (≈ 5.53 µM)
MIC [4]: 2.5 µg/mL (≈ 4.93 µM)
MIC [5, 10]: 0.14 µg/mL (≈ 0.276 µM)
MIC [6, 12]: 0.77 µg/mL (≈ 1.52 µM)

CO/N=C(\C(=O)NC1C(=O)N2C(C(=O)[O-])=C(C[N+]34CCN(CC3)CC4)CS[C@H]12)c1csc(N)n1 (stereo partly drawn) [Example 4, 7-[(Z)-2-(2-Aminothiazol-4-yl)-2-methoxyiminoacetamido]-3-(1,4-diazabicyclo[2,2,2]octan-1-io)methyl-3-cephem-4-carboxylate]
MIC [1]: 0.8 µg/mL (≈ 1.58 µM)
MIC [2, 7]: 0.07 µg/mL (≈ 0.138 µM)
MIC [3]: 3.6 µg/mL (≈ 7.09 µM)
MIC [4, 9]: 5.8 µg/mL (≈ 11.4 µM)
MIC [5]: 0.16 µg/mL (≈ 0.315 µM)
MIC [6, 12]: 2.9 µg/mL (≈ 5.71 µM)

CO/N=C(\C(=O)NC1C(=O)N2C(C(=O)[O-])=C(C[N+]3(C)CCN(C)CC3)CS[C@H]12)c1csc(N)n1 (stereo partly drawn) [Example 5, 7-[(Z)-2-(2-Aminothiazol-4-yl)-2-methoxyiminoacetamido]-3-(1,4-dimethyl-1-piperazinio)methyl-3-cephem-4-carboxylate]
MIC ([1]; Gn-II, 5 strains): 0.78 µg/mL (≈ 1.53 µM)
MIC [2, 7]: 0.057 µg/mL (≈ 0.112 µM)
MIC [3]: 3.6 µg/mL (≈ 7.06 µM)
MIC [4, 9]: 4.7 µg/mL (≈ 9.22 µM)
MIC [5, 10]: 0.12 µg/mL (≈ 0.235 µM)
MIC [6, 12]: 2.3 µg/mL (≈ 4.51 µM)

CO/N=C(\C(=O)NC1C(=O)N2C(C(=O)[O-])=C(C[N+]3(C)CCc4scnc4C3)CS[C@H]12)c1csc(N)n1 (stereo partly drawn) [Example 6, 7-[(Z)-2-(2-Aminothiazol-4-yl)-2-methoxyiminoacetamido]-3-(5-methyl-4,5,6,7-tetrahydro-5-thiazolo[4,5-c]pyridinio)methyl-3-cephem-4-carboxylate]
MIC [1]: 0.4 µg/mL (≈ 0.728 µM)
MIC [2]: 0.025 µg/mL (≈ 0.0455 µM)
MIC [3, 8]: 4.2 µg/mL (≈ 7.64 µM)
MIC [4, 9]: 3.2 µg/mL (≈ 5.82 µM)
MIC [5]: 0.15 µg/mL (≈ 0.273 µM)
MIC [6, 12]: 0.9 µg/mL (≈ 1.64 µM)

CO/N=C(\C(=O)NC1C(=O)N2C(C(=O)[O-])=C(C[N+]3(C)CCCCCC3)CS[C@H]12)c1csc(N)n1 (stereo partly drawn) [Example 7, 7-[(Z)-2-(2-Aminothiazol-4-yl)-2-methoxyiminoacetamido]-3-(1-methylhexahydroazepinio)methyl-3-cephem-4-carboxylate]
MIC ([1]; Gn-II, 5 strains): 0.15 µg/mL (≈ 0.295 µM)
MIC [2, 7]: 0.05 µg/mL (≈ 0.0983 µM)
MIC [3, 8]: 4.2 µg/mL (≈ 8.26 µM)
MIC [4, 9]: 3.2 µg/mL (≈ 6.29 µM)
MIC [5, 10]: 0.13 µg/mL (≈ 0.256 µM)
MIC [6, 12]: 0.9 µg/mL (≈ 1.77 µM)

CO/N=C(\C(=O)NC1C(=O)N2C(C(=O)[O-])=C(C[N+]3(C)CCC(O)C3)CS[C@H]12)c1csc(N)n1 (stereo partly drawn) [Example 9, 7-[(Z)-2-(2-Aminothiazol-4-yl)-2-methoxyiminoacetamido]-3-(3-hydroxy-1-methylpyrrolidinio)methyl-3-cephem-4-carboxylate]
MIC [1]: 0.14 µg/mL (≈ 0.282 µM)
MIC [2, 7]: 0.27 µg/mL (≈ 0.544 µM)
MIC [3, 8]: 2.9 µg/mL (≈ 5.84 µM)
MIC [4, 9]: 3.3 µg/mL (≈ 6.65 µM)
MIC [5]: 0.14 µg/mL (≈ 0.282 µM)
MIC [6, 13]: 1.3 µg/mL (≈ 2.62 µM)

CC[N+]1(CC2=C(C(=O)[O-])N3C(=O)C(NC(=O)/C(=N\OC)c4csc(N)n4)[C@H]3SC2)CCCC1 (stereo partly drawn) [Example 10, 7-[(Z)-2-(2-Aminothiazol-4-yl)-2-methoxyiminoacetamido]-3-(1-ethylpyrrolidinio)methyl-3-cephem-4-carboxylate]
MIC ([1]; Gn-II, 5 strains): 0.13 µg/mL (≈ 0.263 µM)
MIC [2]: 0.037 µg/mL (≈ 0.0748 µM)
MIC [3, 8]: 3.1 µg/mL (≈ 6.27 µM)
MIC [4]: 2 µg/mL (≈ 4.04 µM)
MIC [5, 10]: 0.13 µg/mL (≈ 0.263 µM)
MIC [6, 13]: 1 µg/mL (≈ 2.02 µM)

CO/N=C(\C(=O)NC1C(=O)N2C(C(=O)[O-])=C(C[N+]3(C)CC=CC3)CS[C@H]12)c1csc(N)n1 (stereo partly drawn) [Example 11, 7-[(Z)-2-(2-Aminothiazol-4-yl)-2-methoxyiminoacetamido]-3-(1-methyl-3-pyrrolinio)methyl-3-cephem-4-carboxylate]
MIC ([1]; Gn-II, 5 strains): 0.15 µg/mL (≈ 0.313 µM)
MIC [2, 7]: 0.019 µg/mL (≈ 0.0397 µM)
MIC [3]: 2.5 µg/mL (≈ 5.22 µM)
MIC [4, 9]: 2.1 µg/mL (≈ 4.39 µM)
MIC [5]: 0.17 µg/mL (≈ 0.355 µM)
MIC [6, 12]: 0.78 µg/mL (≈ 1.63 µM)
